Assay: Rugulosin analysis of needles by HPLC (toxin in planta)
Design: species or system Picea glauca
Details: field trees analyzed in 2005, limit of detection 150 ng/g
Protocol: Rugulosin of purity>95% was used for standards. The presence of rugulosin was then to be determined in a sub-sample of 113 randomly-selected trees of the 330 trees determined to be endophyte positive by antibody. A 100 mg sample of freeze-dried needles was ground to a fine power as describe above and extracted with 10 mL of ice cold petroleum ether by stirring for 45 min under conditions of low light. The flask was kept on ice during the extracting and was covered with aluminium foil to prevent degradation by light. The suspension was filtered by suction and discarded. The needles were returned to the flask and extracted with 10 mL of chloroform for 45 min as above for petroleum ether. The new suspension was then filtered by suction and retained while the needles were discarded. The chloroform extract was washed with 10 mL of 5% NaHCO3 in a separatory funnel. […]
The dried extracts were re-dissolved in 50 μL of acetonitrile, 10 μL was removed and injected into an 1100 series Agilent Technologies HPLC-DAD, using a Synergi Max RP 80A, 250×4.6 column (Phenomonex) and a gradient method adapted from Frisvad (1987). […] Samples were analysed at 389 nm, the maximum UVNIS absorption for rugulosin and peak identity was confirmed by full spectrum data from the diode array detector. The limit of quantification was 150 ng/g freeze dried powdered material; recoveries from spiked needles averaged 75%. […]

## Cc1cc(O)c2c(c1)C(=O)[C@]13C(=C2O)C(=O)[C@@H]2[C@H](O)[C@H]1[C@@H]1[C@@H](O)[C@H]3C(=O)C3=C(O)c4c(O)cc(C)cc4C(=O)[C@]312 [rugulosin]
  individual branch samples positive for rugulosin or its degradation product: 89%

Source: patent publication US10674699B2, “Endophyte enhanced seedlings with increased pest tolerance” (priority 2006, dated 2020)
